Source: the CheMixHub ionic liquid set

Test: xn = mol fraction of the nth substance listed
Conditions: 100 kPa

O=[N+]([O-])[O-].O=[N+]([O-])[O-].O=[N+]([O-])[O-].[Al+3] + O + CC[NH3+].O=[N+]([O-])[O-]
Conditions | electrical conductivity [S/m] | viscosity [mPa·s]
233 K, x1 = 0.1395, x2 = 0.5934 | 0.001 | –
243 K, x1 = 0.1395, x2 = 0.5934 | 0.006 | –
243 K, x1 = 0.2128, x2 = 0.7086 | 0.002 | –
253 K, x1 = 0.1395, x2 = 0.5934 | 0.025 | –
253 K, x1 = 0.2128, x2 = 0.7086 | 0.011 | –
263 K, x1 = 0.1395, x2 = 0.5934 | 0.077 | –
263 K, x1 = 0.2128, x2 = 0.7086 | 0.037 | –
273 K, x1 = 0.1395, x2 = 0.5934 | 0.18 | –
273 K, x1 = 0.2128, x2 = 0.7086 | 0.094 | –
283 K, x1 = 0.1395, x2 = 0.5934 | 0.354 | –
283 K, x1 = 0.2128, x2 = 0.7086 | 0.2 | –
288.15 K, x1 = 0.1395, x2 = 0.5934 | – | 274
288.15 K, x1 = 0.2128, x2 = 0.7086 | – | 880
293 K, x1 = 0.1395, x2 = 0.5934 | 0.615 | –
293 K, x1 = 0.2128, x2 = 0.7086 | 0.371 | –
293.15 K, x1 = 0.1395, x2 = 0.5934 | – | 204
293.15 K, x1 = 0.2128, x2 = 0.7086 | – | 587
298.15 K, x1 = 0.1395, x2 = 0.5934 | – | 153.7
298.15 K, x1 = 0.2128, x2 = 0.7086 | – | 394
303 K, x1 = 0.1395, x2 = 0.5934 | 0.974 | –
303 K, x1 = 0.2128, x2 = 0.7086 | 0.624 | –
303.15 K, x1 = 0.1395, x2 = 0.5934 | – | 116.8
303.15 K, x1 = 0.2128, x2 = 0.7086 | – | 269
308.15 K, x1 = 0.1395, x2 = 0.5934 | – | 89.5
308.15 K, x1 = 0.2128, x2 = 0.7086 | – | 185
313 K, x1 = 0.1395, x2 = 0.5934 | 1.43 | –
313 K, x1 = 0.2128, x2 = 0.7086 | 0.971 | –
313.15 K, x1 = 0.1395, x2 = 0.5934 | – | 69.2
313.15 K, x1 = 0.2128, x2 = 0.7086 | – | 129.3
323 K, x1 = 0.1395, x2 = 0.5934 | 2 | –
323 K, x1 = 0.2128, x2 = 0.7086 | 1.42 | –
333 K, x1 = 0.1395, x2 = 0.5934 | 2.66 | –
333 K, x1 = 0.2128, x2 = 0.7086 | 1.98 | –
343 K, x1 = 0.1395, x2 = 0.5934 | 3.41 | –
343 K, x1 = 0.2128, x2 = 0.7086 | 2.64 | –
353 K, x1 = 0.1395, x2 = 0.5934 | 4.25 | –
353 K, x1 = 0.2128, x2 = 0.7086 | 3.42 | –
363 K, x1 = 0.1395, x2 = 0.5934 | 5.17 | –
363 K, x1 = 0.2128, x2 = 0.7086 | 4.3 | –
373 K, x1 = 0.1395, x2 = 0.5934 | 6.16 | –
373 K, x1 = 0.2128, x2 = 0.7086 | 5.28 | –

CCCC[n+]1ccn(C)c1.N#C[N-]C#N + O + NCCO
x1 = 0.2918, x2 = 0.2557
Conditions | viscosity [mPa·s]
303 K | 11.73
308 K | 9.99
313 K | 8.59
318 K | 7.46
323 K | 6.53

CC[n+]1ccn(C)c1C.O=S(=O)([N-]S(=O)(=O)C(F)(F)F)C(F)(F)F + O=C1CCCO1
frequency 0.005 MHz
Conditions | electrical conductivity [S/m]
293.15 K, x2 = 0.3071 | 0.628
293.15 K, x2 = 0.7999 | 1.36
293.15 K, x2 = 0.9507 | 0.925
298.15 K, x2 = 0 | 0.383
298.15 K, x2 = 0.6999 | 1.42
298.15 K, x2 = 0.7999 | 1.52
308.15 K, x2 = 0.4996 | 1.34
308.15 K, x2 = 0.8999 | 1.72
313.15 K, x2 = 0.8999 | 1.84
318.15 K, x2 = 0.4996 | 1.69
323.15 K, x2 = 0 | 0.92
323.15 K, x2 = 0.0999 | 1.07
323.15 K, x2 = 0.5987 | 2.02
323.15 K, x2 = 0.8474 | 2.3
323.15 K, x2 = 0.9507 | 1.4

CC(=O)[O-].CC[n+]1ccn(C)c1 + O=C[C@H](O)[C@@H](O)[C@H](O)[C@H](O)CO
Conditions | viscosity [mPa·s]
282.5 K, x2 = 0.009453 | 407
282.5 K, x2 = 0.02839 | 517
312.5 K, x2 = 0.1429 | 419
332.2 K, x2 = 0.1429 | 123
373.1 K, x2 = 0.095 | 19
